Reference: patent publication US12679839B2, “Cyclin-dependent kinase 7 (CDK7) non-covalent inhibitors” (JANSSEN PHARMACEUTICA NV, priority 2020, dated 2026)

Molecular target: T1, CDK7/Cyclin H/MAT-1 complex (Homo sapiens, UniProt P50613)
T1 construct: Human CDK7 (amino acids 1-346); His6 (N); TEV protease cleavage site (N); made in house; host or cells: baculovirus-SF9 insect cells
Test: Absorbance kinetic assay (20 nM CDK7/Cyclin H/MAT-1 complex)
Format: biochemical
Details: for IC50: read-out: CDK7 (20 nM) pIC50 (converted)
In short: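 Trimeric complex (His6-TEV CDK7 1-346, MAT1 1-309, cyclin H 1-323) from Sf9 cells, at 20 nM, phosphorylating RNA Pol II-derived CDK7/9-tide; ADP coupled via PK/LDH to NADH depletion read at 340 nm every 2 min for 8 h. Steady-state slopes gave % inhibition; IC50 from 11-point Hill fit.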

T1 sequence (P50613 whole entry, the tested form may be a part): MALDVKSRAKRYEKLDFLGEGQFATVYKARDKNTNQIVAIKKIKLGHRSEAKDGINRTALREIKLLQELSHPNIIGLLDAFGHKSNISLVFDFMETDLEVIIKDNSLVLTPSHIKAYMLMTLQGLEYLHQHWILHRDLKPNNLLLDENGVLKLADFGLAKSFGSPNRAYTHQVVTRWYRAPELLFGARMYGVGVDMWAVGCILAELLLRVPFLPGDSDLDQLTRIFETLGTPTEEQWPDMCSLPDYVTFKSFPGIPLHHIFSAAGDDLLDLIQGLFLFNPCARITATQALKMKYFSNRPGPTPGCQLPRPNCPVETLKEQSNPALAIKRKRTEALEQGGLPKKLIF
T1 sequence (P51946 whole entry partner, the tested form may be a part): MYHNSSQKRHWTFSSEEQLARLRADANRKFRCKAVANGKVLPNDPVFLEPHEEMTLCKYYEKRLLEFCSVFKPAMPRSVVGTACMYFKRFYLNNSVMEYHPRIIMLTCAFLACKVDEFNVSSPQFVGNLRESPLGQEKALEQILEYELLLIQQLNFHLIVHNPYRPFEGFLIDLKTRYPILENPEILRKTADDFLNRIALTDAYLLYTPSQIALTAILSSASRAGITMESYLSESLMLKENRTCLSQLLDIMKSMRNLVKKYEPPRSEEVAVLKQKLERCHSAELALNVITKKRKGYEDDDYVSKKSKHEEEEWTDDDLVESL
T1 sequence (P51948 whole entry partner, the tested form may be a part): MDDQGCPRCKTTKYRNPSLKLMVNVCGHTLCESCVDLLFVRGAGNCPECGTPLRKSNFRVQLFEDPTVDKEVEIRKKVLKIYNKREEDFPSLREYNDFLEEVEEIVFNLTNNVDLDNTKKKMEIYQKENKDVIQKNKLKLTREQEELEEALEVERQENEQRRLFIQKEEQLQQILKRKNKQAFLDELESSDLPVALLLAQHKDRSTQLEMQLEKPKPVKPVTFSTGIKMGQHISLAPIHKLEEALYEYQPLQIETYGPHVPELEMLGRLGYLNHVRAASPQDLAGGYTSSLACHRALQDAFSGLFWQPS

| Structure (SMILES) | CDK7 (20 nM) pIC50 | IC50 |
| --- | --- | --- |
| CC(C)n1cc(Nc2ncc3c(n2)CN(C(=O)[C@H]2CCN(C)C[C@@H]2c2ccccc2)[C@H](C)C3)cn1 [Compound 89] | 6.1 | – |
| C[C@@H]1Cc2cnc(N[C@H](C)c3ccn(C)n3)nc2CN1C(=O)[C@H]1CCN(C)C[C@@H]1c1ccccc1 (single isomer, unassigned) [Compound 54] | – | 12.3 nM |
| CC(C)n1ccc(CNc2ncc3c(n2)CN(C(=O)[C@H]2CCN(C)C[C@@H]2c2ccccc2)[C@H](C)C3)n1 [Compound 66] | >8.01 | – |
| C[C@@H]1Cc2cnc(Nc3ccnc(C(F)F)c3)nc2CN1C(=O)[C@H]1CCN(C)C[C@@H]1c1ccccc1 [Compound 75] | 7.46 | – |
| C[C@@H]1Cc2cnc(NCc3ccsc3)nc2CN1C(=O)[C@H]1CCN(C)C[C@@H]1c1ccccc1 [Compound 48] | 7.59 | – |
| C[C@@H]1Cc2cnc(NC3Cc4ccccc4C3)nc2CN1C(=O)[C@H]1CCN(C)C[C@@H]1c1ccccc1 [Compound 29] | 8.01 | – |
| CO[C@H]1CC[C@H](Nc2ncc3c(n2)CN(C(=O)[C@H]2CCN(C)C[C@@H]2c2ccc(C)nc2)[C@H](C)C3)CC1 (relative stereo) [Compound 110] | – | < 9.77 nM |
| Cc1ncc(CNc2ncc3c(n2)CN(C(=O)[C@H]2CCN(C)C[C@@H]2c2ccccc2)[C@H](C)C3)[nH]1 [Compound 52] | 7.97 | – |
| C[C@@H]1Cc2cnc(NC3CCS(=O)(=O)CC3)nc2CN1C(=O)[C@H]1CCN(C)C[C@@H]1c1ccccc1 [Compound 44] | >7.7 | – |
| C[C@@H]1Cc2cnc(NCc3ccn(C)n3)nc2CN1C(=O)[C@H]1CCN(C)C[C@@H]1c1ccccc1 [Compound 1] | 8.01 | – |
| C[C@@H]1Cc2cnc(NC[C@@H]3CCCO3)nc2CN1C(=O)[C@H]1CCN(C)C[C@@H]1c1ccccc1 [Compound 67] | – | < 9.77 nM |
| C[C@@H]1Cc2cnc(NCc3ccn(C)n3)nc2CN1C(=O)[C@@H]1CCN(C)C[C@H]1c1cccc(OC(F)(F)F)c1 (relative stereo) [Compound 127] | – | 234 nM |
| [2H]C([2H])(Nc1ncc2c(n1)CN(C(=O)[C@H]1CCN(C)C[C@@H]1c1ccccc1)[C@H](C)C2)c1ccccc1 [Compound 70] | – | < 9.77 nM |
| C[C@@H]1Cc2cnc(NC3CCOCC3)nc2CN1C(=O)[C@H]1CCN(C)C[C@@H]1c1ccccc1 [Compound 47] | >7.7 | – |
| C[C@H](Nc1ncc2c(n1)CN(C(=O)[C@H]1CCN(C)C[C@@H]1c1ccccc1)[C@H](C)C2)c1ccccn1 [Compound 20] | 8.01 | – |
| C[C@@H]1Cc2cnc(N[C@@H](CO)c3ccccc3)nc2CN1C(=O)[C@H]1CCN(C)C[C@@H]1c1ccccc1 [Compound 71] | >8.01 | – |
| C[C@@H]1Cc2cnc(N[C@H]3CC[C@H](O)CC3)nc2CN1C(=O)[C@H]1CCN(C)C[C@@H]1c1ccccc1 [Compound 12] | >8.01 | – |
| C[C@@H]1Cc2cnc(N[C@H]3CC[C@H](C)CC3)nc2CN1C(=O)[C@H]1CCN(C)C[C@@H]1c1ccccc1 [Compound 13] | 8.01 | – |
| C[C@@H]1Cc2cnc(N[C@H](CO)c3ccccc3)nc2CN1C(=O)[C@H]1CCN(C)C[C@@H]1c1ccccc1 [Compound 72] | 8.01 | – |
| C[C@@H]1Cc2cnc(NC[C@H]3CCOC3)nc2CN1C(=O)[C@H]1CCN(C)C[C@@H]1c1ccccc1 [Compound 53] | 7.39 | – |
| C[C@@H]1Cc2cnc(NCc3ccccc3)nc2CN1C(=O)[C@H]1CCN(C)C[C@@H]1c1ccccc1 [Compound 43] | 8.01 | – |
| C[C@H](Nc1ncc2c(n1)CN(C(=O)[C@H]1CCN(C)C[C@@H]1c1ccccc1)[C@H](C)C2)c1ccn(C)n1 (single isomer, unassigned) [Compound 55] | – | 141 nM |
| Cc1cccc([C@H]2CN(C)CC[C@@H]2C(=O)N2Cc3nc(NC4CCOCC4)ncc3C[C@H]2C)c1 [Compound 93] | >8.01 | – |
| C[C@@H]1Cc2cnc(NC3CCC(OCC4CC4)CC3)nc2CN1C(=O)[C@H]1CCN(C)C[C@@H]1c1ccccc1 (some centres unmarked) [Compound 3] | >8.01 | – |
| Cc1cn(C)nc1CNc1ncc2c(n1)CN(C(=O)[C@H]1CCN(C)C[C@@H]1c1ccccc1)[C@H](C)C2 [Compound 61] | >8.01 | – |
| C[C@@H]1Cc2cnc(N[C@H]3CCC(=O)N(C)C3)nc2CN1C(=O)[C@H]1CCN(C)C[C@@H]1c1ccccc1 (relative stereo) [Compound 7] | – | < 9.77 nM |
| C[C@@H]1Cc2cnc(NC[C@@H]3CCOC3)nc2CN1C(=O)[C@H]1CCN(C)C[C@@H]1c1ccccc1 [Compound 62] | >8.01 | – |
| C[C@@H]1Cc2cnc(Nc3cnn4c3CCCC4)nc2CN1C(=O)[C@H]1CCN(C)C[C@@H]1c1ccccc1 [Compound 77] | 7.53 | – |
| CCn1ccc(CNc2ncc3c(n2)CN(C(=O)[C@H]2CCN(C)C[C@@H]2c2ccccc2)[C@H](C)C3)n1 [Compound 58] | >8.01 | – |

Continued, values first:

| CDK7 (20 nM) pIC50 | IC50 | Structure (SMILES) |
| --- | --- | --- |
| 6.96 | – | CC(C)N1CC[C@H](C(=O)N2Cc3nc(NC4CCOCC4)ncc3C[C@H]2C)[C@@H](c2cccc(Cl)c2)C1 (single isomer, unassigned) [Compound 160] |
| 7.55 | – | C[C@@H]1Cc2cnc(NC3CCS(=O)(=O)CC3)nc2CN1C(=O)N1CCN(C)C[C@@H]1c1ccccc1 [Compound 214] |
| 7.46 | – | CN1CC[C@H](C(=O)N2Cc3nc(Nc4cnn(C)c4)ncc3[C@@H]3C[C@@H]32)[C@@H](c2ccccc2)C1 [Compound 200] |
| – | 22.9 nM | C[C@H]1Cc2cnc(Nc3cnn(C)c3)cc2CN1C(=O)[C@H]1CCN(C)C[C@@H]1c1ccccc1 (relative stereo) [Compound 176] |
| 6.75 | – | CN1CC[C@H](C(=O)N2Cc3nc(NC4CCOCC4)ncc3C(C)(C)C2)[C@@H](c2ccccc2)C1 [Compound 193] |
| >8.01 | – | C[C@@H]1c2nc(NC3CCOCC3)ncc2[C@@H](C)CN1C(=O)[C@H]1CCN(C)C[C@@H]1c1ccccc1 [Compound 180a] |
| – | 389 nM | CO[C@H]1CC[C@H](Nc2cc3c(cn2)C[C@H](C)N(C(=O)[C@H]2CCN(C)C[C@@H]2c2cccc(C)c2)C3)CC1 [Compound 177c] |
| >7.7 | – | C[C@@H]1Cc2cnc(NC3CCN(S(=O)(=O)N(C)C)CC3)nc2CN1C(=O)N1CCN(C)C[C@@H]1c1ccccc1 [Compound 211] |
| >8.01 | – | CN1CC[C@H](C(=O)N2Cc3nc(NC4CCOCC4)ncc3[C@@H]3C[C@@H]32)[C@@H](c2ccccc2)C1 [Compound 199] |
| – | 9.77 nM | C[C@H]1Cc2cnc(NC3CCOCC3)cc2CN1C(=O)[C@H]1CCN(C)C[C@@H]1c1ccccc1 (single isomer, unassigned) [Compound 171a] |
| 7.79 | – | CC(C)N1CCN(C(=O)N2Cc3nc(NC4CCOCC4)ncc3C[C@H]2C)[C@@H](c2ccccc2)C1 [Compound 206] |
| – | 28.8 nM | CO[C@H]1CC[C@H](Nc2cc3c(cn2)C[C@H](C)N(C(=O)[C@@H]2CCN(C)C[C@H]2c2cccc(C)c2)C3)CC1 [Compound 177a] |
| – | 18.6 nM | C[C@@H]1Cc2cnc(NCc3ccn(C)n3)nc2CN1C(=O)[C@H]1CCN(C)C[C@@H]1c1cccc(OC(F)(F)F)c1 (relative stereo) [Compound 128] |
| 7.77 | – | C[C@@H]1Cc2cnc(NC3CCN(S(C)(=O)=O)CC3)nc2CN1C(=O)N1CCN(C)C[C@@H]1c1ccccc1 [Compound 209] |
| – | 11.2 nM | C[C@H]1Cc2cnc(NCc3ccn(C)n3)cc2CN1C(=O)[C@H]1CCN(C)C[C@@H]1c1ccccc1 (relative stereo) [Compound 174] |
